Experimental data taken from BigSolDB 2.1.

Nc1ccc(C(=O)[O-])cc1.[K+]
Settings	solubility (mole fraction)
in DMF, 283.15 K	0.00143
in DMF, 293.15 K	0.00146
in DMF, 303.15 K	0.00153
in DMF, 313.15 K	0.00154
in DMF, 323.15 K	0.00159
in DMF, 333.15 K	0.00161
in ethanol, 283.15 K	0.00224
in ethanol, 293.15 K	0.00232
in ethanol, 303.15 K	0.00238
in ethanol, 313.15 K	0.00244
in ethanol, 323.15 K	0.0025
in ethanol, 333.15 K	0.00252
in ethyl acetate, 283.15 K	0.000198
in ethyl acetate, 293.15 K	0.000205
in ethyl acetate, 303.15 K	0.000211
in ethyl acetate, 313.15 K	0.000216
in ethyl acetate, 323.15 K	0.000219
in ethylene glycol, 283.15 K	0.0973
in ethylene glycol, 293.15 K	0.115
in ethylene glycol, 303.15 K	0.127
in ethylene glycol, 313.15 K	0.145
in ethylene glycol, 323.15 K	0.156
in ethylene glycol, 333.15 K	0.172
in formamide, 283.15 K	0.0794
in formamide, 293.15 K	0.0929
in formamide, 303.15 K	0.104
in formamide, 313.15 K	0.112
in formamide, 323.15 K	0.119
in formamide, 333.15 K	0.125
in isopropanol, 283.15 K	0.000366
in isopropanol, 293.15 K	0.000416
in isopropanol, 303.15 K	0.000486
in isopropanol, 313.15 K	0.000496
in isopropanol, 323.15 K	0.00052
in isopropanol, 333.15 K	0.000556
in n-propanol, 283.15 K	0.000852
in n-propanol, 293.15 K	0.000874
in n-propanol, 303.15 K	0.000884
in n-propanol, 313.15 K	0.000929
in n-propanol, 323.15 K	0.000952
in n-propanol, 333.15 K	0.000981
in water, 278.15 K	0.092
in water, 288.15 K	0.11
in water, 298.15 K	0.125
in water, 308.15 K	0.144
in water, 318.15 K	0.161
in water, 328.15 K	0.177
in water, 338.15 K	0.194
